Among the test systems are HCT-15 colon; HOP-92 NSCLC; M14 melanoma; OVCAR-4 ovarian; PC-3 prostate; SK-MEL-28 melanoma; SW-620 colon; TK-10 renal; UACC-62 melanoma; RXF 393 renal.
Holding throughout (test): NCI anticancer screen, dose series, 48 h

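48-hour exposure; five concentrations; linearly interpolated endpoints. The concentration for 50% growth inhibition is given as GI50. The concentration for full growth arrest is given as TGI.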

`C=C1C(=O)OC2CC3(C)CCCC(C)C3=CC12` (stereo not drawn): the TGI stood at 5.08 µM with HCT-15 colon; 10.3 µM in the assay with HOP-92 NSCLC; 16.1 µM with M14 melanoma; 20.2 µM with OVCAR-4 ovarian; 39.2 µM in the assay on PC-3 prostate; 12.2 µM in the assay on SK-MEL-28 melanoma. For the same compound, the TGI in the assay on SW-620 colon is 6.13 µM; in the assay on TK-10 renal, 10.1 µM; in the assay with UACC-62 melanoma, 16.2 µM.
Regarding `CC(=O)C1CCC2C3CC=C4CC(SC(=N)N)CCC4(C)C3CCC12C` (stereo not drawn), the GI50 in the assay on M14 melanoma was 1.46 µM; in the assay on OVCAR-4 ovarian, 1.85 µM; in the assay with PC-3 prostate it was 1.55 µM; in the assay on RXF 393 renal, 1.66 µM; with SW-620 colon, 1.62 µM; in the assay on TK-10 renal it was 1.69 µM. The TGI came to 2.81 µM in the assay on M14 melanoma; 4.8 µM with OVCAR-4 ovarian; 4.2 µM in the assay on PC-3 prostate; 3.63 µM in the assay on RXF 393 renal; 3.16 µM in the assay on SW-620 colon; 3.17 µM in the assay with TK-10 renal.
For the compound `C=C1CCC2C3(C)COC(c4ccc(Cl)cc4)OC3CCC2(C)C1/C=C/C1=CCOC1=O` (stereo not drawn), the GI50 is 4.79 µM with HCT-15 colon; 9.96 µM in the assay on HOP-92 NSCLC; 27.2 µM with M14 melanoma; 1.67 µM in the assay on PC-3 prostate; 12 µM in the assay on RXF 393 renal; 21.7 µM with SK-MEL-28 melanoma. The GI50 in the assay with SW-620 colon was > 100 µM; in the assay on TK-10 renal it was 14.4 µM; with UACC-62 melanoma, 4 µM. In addition, the TGI with HCT-15 colon was > 100 µM; in the assay with HOP-92 NSCLC, 39.1 µM; with M14 melanoma, > 100 µM; in the assay with PC-3 prostate, 69.9 µM; in the assay with RXF 393 renal, 58.2 µM; in the assay on SK-MEL-28 melanoma, > 100 µM. In addition, the TGI in the assay on SW-620 colon, in the assay with TK-10 renal and in the assay on UACC-62 melanoma was > 100 µM each time.
On to `NNC(=S)Nc1cccc(Cl)c1`, for which the TGI in the assay on HCT-15 colon, in the assay with M14 melanoma, in the assay on OVCAR-4 ovarian, with PC-3 prostate, with RXF 393 renal and in the assay with SK-MEL-28 melanoma was > 100 µM each time. The TGI with SW-620 colon, with TK-10 renal and in the assay on UACC-62 melanoma was > 100 µM in each case.
With `COC(=O)C1=C(O)[C@H](C(=O)OC)[C@]2(O)[C@@H](C(=O)OC)[C@H]1C[C@@H](c1ccc(OC(=O)/C=C/c3ccco3)cc1)[C@@H]2C(=O)OC`, the GI50 in the assay on HCT-15 colon was 6.22 µM; in the assay with HOP-92 NSCLC, 18.1 µM; in the assay on M14 melanoma it was 10.7 µM; in the assay on PC-3 prostate it was 21.5 µM; in the assay on RXF 393 renal it was 41.6 µM; in the assay on SK-MEL-28 melanoma it was 29.1 µM. Further, the GI50 in the assay on SW-620 colon was 36.3 µM; in the assay with TK-10 renal, 47.1 µM; in the assay with UACC-62 melanoma it was 4.09 µM. Further, the TGI in the assay on HCT-15 colon was 24 µM; in the assay with HOP-92 NSCLC it was 48.3 µM; with M14 melanoma, 23.2 µM; in the assay on PC-3 prostate, 88.3 µM; with RXF 393 renal it was > 100 µM; with SK-MEL-28 melanoma, > 100 µM. The TGI is > 100 µM in the assay with SW-620 colon, > 100 µM with TK-10 renal and 18.9 µM in the assay with UACC-62 melanoma.
In the case of `O=C(Nc1cccnc1)c1ccc2ccc3ccc(C(=O)Nc4cccnc4)nc3c2n1`, the GI50 was 0.0518 µM in the assay on HCT-15 colon; 0.0799 µM in the assay on M14 melanoma; 0.37 µM in the assay on OVCAR-4 ovarian; 0.158 µM in the assay with PC-3 prostate; 0.11 µM with RXF 393 renal; 0.324 µM in the assay with SK-MEL-28 melanoma. The GI50 was 0.0781 µM in the assay on SW-620 colon and 0.205 µM with UACC-62 melanoma. Besides, the TGI is > 100 µM in the assay with HCT-15 colon; > 100 µM with M14 melanoma; > 100 µM in the assay on OVCAR-4 ovarian; > 100 µM in the assay on PC-3 prostate; 0.342 µM in the assay on RXF 393 renal; > 100 µM in the assay on SK-MEL-28 melanoma. Moreover, the TGI with SW-620 colon, in the assay on TK-10 renal and with UACC-62 melanoma was > 100 µM throughout.
Regarding `CCOC(=O)c1csc(NC(=O)COc2cccc(/C=C3\CSc4ccccc4C3=O)c2)n1`, the GI50 with HCT-15 colon was 2.06 µM; in the assay with M14 melanoma it was 1.86 µM; with OVCAR-4 ovarian, 3.69 µM; with PC-3 prostate it was 0.246 µM; with RXF 393 renal it was 2.86 µM; in the assay on SK-MEL-28 melanoma, 2.51 µM. Moreover, the GI50 was 0.992 µM in the assay on SW-620 colon, 2.11 µM in the assay on TK-10 renal and 2.61 µM in the assay with UACC-62 melanoma. The TGI amounted to 4.62 µM with HCT-15 colon; 4.18 µM in the assay on M14 melanoma; 17.9 µM in the assay on OVCAR-4 ovarian; 1.52 µM in the assay on PC-3 prostate; 11.2 µM with RXF 393 renal; 6.18 µM in the assay with SK-MEL-28 melanoma. The TGI in the assay on SW-620 colon is 2.7 µM; in the assay on TK-10 renal, 9.62 µM; in the assay on UACC-62 melanoma it was 7.02 µM.
With `Cc1cn2c(/C=C3/C(=O)Nc4ccc(F)cc43)c(C)nc2s1`, the GI50 is 2.73 µM in the assay with HCT-15 colon; 4.74 µM in the assay on HOP-92 NSCLC; 2.68 µM in the assay with M14 melanoma; 12.6 µM with OVCAR-4 ovarian; 9.51 µM with PC-3 prostate; 4.11 µM with SK-MEL-28 melanoma. Also, the GI50 is 3.18 µM in the assay with SW-620 colon, 22.2 µM in the assay on TK-10 renal and 3.85 µM with UACC-62 melanoma. Besides, the TGI with HCT-15 colon is > 50 µM; in the assay with HOP-92 NSCLC it was 29 µM; with M14 melanoma, 17 µM; in the assay on OVCAR-4 ovarian, > 50 µM; in the assay with PC-3 prostate it was > 50 µM; in the assay with SK-MEL-28 melanoma, > 50 µM. In addition, the results for the TGI with SW-620 colon, with TK-10 renal and in the assay on UACC-62 melanoma were > 50 µM, > 50 µM and 48.3 µM, respectively.
Consider `CCc1nc2cc(/C=C/C(=O)NO)ccc2c(=O)n1CCc1ccc(F)cc1`, for which the GI50 with HCT-15 colon is 1.57 µM; in the assay on HOP-92 NSCLC, 2.45 µM; with M14 melanoma, 1.65 µM; in the assay on OVCAR-4 ovarian, 2.34 µM; in the assay on PC-3 prostate, 2.92 µM; with SK-MEL-28 melanoma, 1.85 µM. Besides, the GI50 with TK-10 renal is 1.42 µM. Further, the TGI in the assay on HCT-15 colon was 39.6 µM; in the assay with HOP-92 NSCLC, 6.28 µM; with M14 melanoma, 3.6 µM; with OVCAR-4 ovarian, > 100 µM; in the assay with PC-3 prostate, > 100 µM; in the assay on SK-MEL-28 melanoma it was 4.15 µM. The same compound came in with a TGI in the assay on TK-10 renal of 4.89 µM.

The values above are taken from PubChem BioAssay (NCI).
